Source: article PMC8087158 (Angewandte Chemie (International ed. in English), 2021)

Key:
[1] = system: P. falciparum strain Pf 3D7; experiment: Growth inhibition of erythrocytic stage P. falciparum Pf 3D7; assay type: cell-based, Plasmodium falciparum
Pf20S β5 [2] = experiment: Hydrolysis of suc-LLVY-AMC by Pf20S, time courses of inhibition; assay type: biochemical, Plasmodium falciparum
Pf20S β5 [3] = experiment: Blocking of MV151 labelling of Pf20S β5; assay type: binding, Plasmodium falciparum; conditions: with or without WLW-VS
[4] = system: P. falciparum lab strain Dd2; experiment: Growth inhibition of Pf Dd2; assay type: cell-based, Plasmodium falciparum
Pf Dd2β6A117D = experiment: Growth inhibition of proteasome inhibitor-resistant Pf Dd2β6A117D; assay type: cell-based, Plasmodium falciparum; conditions: relative to Dd2
Pf Dd2β5A49S = experiment: Growth inhibition of proteasome inhibitor-resistant Pf Dd2β5A49S; assay type: cell-based, Plasmodium falciparum; conditions: relative to Dd2
[5] = system: polyubiquitinated proteins in Pf trophozoites; experiment: Accumulation of polyubiquitinated proteins in parasites; assay type: cell-based, Plasmodium falciparum; conditions: 6-hour exposure, 1 μM
[6] = system: Pf strain HB3 (chloroquine-sensitive); experiment: Growth inhibition of Pf strain HB3; assay type: cell-based, Plasmodium falciparum
[7] = system: Pf strain 3663 (ART-sensitive); experiment: Growth inhibition of Pf strain 3663; assay type: cell-based, Plasmodium falciparum
[8] = system: Pf strain 4884 (ART-resistant); experiment: Growth inhibition of Pf strain 4884; assay type: cell-based, Plasmodium falciparum
[9] = system: artemisinin-sensitive Pf Cam3.I^Rev; experiment: Modified ring-stage survival assay, combination with DHA, isobologram; assay type: cell-based, Plasmodium falciparum; conditions: 3-h pulse of DHA, continuous TDI-8304 for further 69 h; parasitemia at 72 h
[10] = system: artemisinin-resistant Pf Cam3.I^R539T; experiment: as above; assay type: cell-based, Plasmodium falciparum; conditions: 3-h pulse of DHA, continuous TDI-8304 for further 69 h; parasitemia at 72 h
[11] = system: P. falciparum Pf3D7^0087/N9; experiment: Humanized mouse model of Pf infection, parasitemia; assay type: in vivo, NOD-SCID IL-2R-null mice transfused with human erythrocytes; conditions: s.c. 100 mg/kg b.i.d., days 3 – 6 post infection

O=C(NC1CCCC1)[C@@H]1CCCCOc2cccc(c2)C[C@H](N2CCCC2=O)C(=O)N[C@@H](CCN2CCOCC2)C(=O)N1 [TDI-8304]
Potency (EC50) against P. falciparum Pf 3D7, in words [1]: highly potent
EC90 ([1]; strain not given, used as exposure threshold): 29 nM
t1/2 half-life for the Pf20S:TDI-8304 complex (Pf20S β5 [2]): 14.4 min
Inhibition modality (Pf20S β5 [2]; induced-fit mechanism): time-dependent inhibition
Blocking of labelling of Pf20S β5 by MV151 (Pf20S β5 [3]): dose-dependently blocked labelling
Potency against P. falciparum lab strain Dd2 [4]: potent
Reduction in potency against Dd2β6A117D (Pf Dd2β6A117D): ~ 18 fold
EC50 against Dd2β5A49S compared with Dd2 (Pf Dd2β5A49S): comparable
Accumulation of polyubiquitinated proteins [5]: accumulation of polyubiquitinated proteins
Activity against Pf strain HB3 [6]: comparable activity
Activity against Pf strain 3663 [7]: comparable activity
Activity against Pf strain 4884 [8]: comparable activity
Interaction with DHA (isobologram) [9]: synergistic killing
Interaction with DHA (isobologram) [10]: synergistic killing
Reduction of parasitemia, one mouse [11]: 2 log10
